Laboratory results taken from US20040171086A1, “Selective modulation of TLR-mediated biological activity” (3M Innovative Properties Company, priority 2003, published 2004).

Columns and labels:
TLR7 = molecular target: T1, TLR7 (Homo sapiens, UniProt Q9NYK1); experiment: IFN-α1-luciferase reporter assay in genetically modified Namalwa cells, TLR7; assay type: cell-based; design: expressed in transfected cells; host or cells: Namalwa (ATCC CRL-1432); conditions: 10 μM IRM, 18 hours
T1 sequence (Q9NYK1 27-1049): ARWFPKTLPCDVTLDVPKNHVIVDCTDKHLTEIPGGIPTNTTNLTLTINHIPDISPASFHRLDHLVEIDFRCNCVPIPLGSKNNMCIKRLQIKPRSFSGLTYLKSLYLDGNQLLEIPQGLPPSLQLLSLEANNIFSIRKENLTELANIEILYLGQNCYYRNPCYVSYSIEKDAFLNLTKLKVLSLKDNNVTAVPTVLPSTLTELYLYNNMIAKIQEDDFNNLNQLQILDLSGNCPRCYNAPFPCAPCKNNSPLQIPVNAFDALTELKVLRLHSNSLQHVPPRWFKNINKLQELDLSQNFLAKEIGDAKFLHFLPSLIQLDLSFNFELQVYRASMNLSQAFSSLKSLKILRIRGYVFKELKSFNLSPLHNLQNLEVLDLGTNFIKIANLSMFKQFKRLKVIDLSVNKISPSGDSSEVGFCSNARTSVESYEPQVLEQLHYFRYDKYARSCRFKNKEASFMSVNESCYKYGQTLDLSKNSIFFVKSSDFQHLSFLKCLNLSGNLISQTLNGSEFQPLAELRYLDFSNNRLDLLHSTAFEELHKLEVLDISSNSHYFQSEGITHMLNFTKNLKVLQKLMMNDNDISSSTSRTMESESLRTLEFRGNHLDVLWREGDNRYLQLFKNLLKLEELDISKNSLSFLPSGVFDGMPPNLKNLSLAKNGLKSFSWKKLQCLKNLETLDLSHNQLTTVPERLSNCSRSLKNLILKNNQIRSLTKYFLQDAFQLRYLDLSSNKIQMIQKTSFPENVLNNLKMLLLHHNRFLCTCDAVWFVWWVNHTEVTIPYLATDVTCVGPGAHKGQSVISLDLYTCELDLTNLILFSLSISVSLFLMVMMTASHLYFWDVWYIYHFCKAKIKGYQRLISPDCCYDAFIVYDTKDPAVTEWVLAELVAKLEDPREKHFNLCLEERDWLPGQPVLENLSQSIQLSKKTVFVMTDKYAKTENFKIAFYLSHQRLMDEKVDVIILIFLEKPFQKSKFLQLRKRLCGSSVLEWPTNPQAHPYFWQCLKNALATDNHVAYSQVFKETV
Experimental: (§1) Results are shown in Table 6 and are expressed as fold induction of IFN-α1 —induced luciferase signal, again with respect to a vehicle control.
(§2) The assay identified TLR6-selective compounds (i.e., compounds that modulate TLR6-mediated activity, but not TLR7-mediated activity), TLR7-selective compounds (compounds that modulate TLR7-mediated activity, but not TLR6-mediated activity), and compounds that modulate cellular activity through both TLR6 and TLR7.
(§3) Unless otherwise indicated, all incubations were performed at 37° C. with 5% CO2 at 98% humidity.
(§4) Culture medium was prepared from complete RPMI 1640 medium (BioSource International, Inc., Camarillo, Calif.). Fetal bovine serum (Atlas Biologicals, Inc., Ft. Collins, Colo.) was added to a final concentration of 7.5% (vol/vol); L-glutamine (BioSource International, Inc.) was added to 5 mM; and sodium pyruvate (BioSource International, Inc.) was added to 1 mM.
Namalwa cells were grown by incubation in culture medium overnight. Cells were harvested by centrifugation in a tabletop centrifuge (1200 RPM for 5 minutes), and then resuspended in phosphate buffered sucrose to a concentration of 1.3×10^7 cells/mL. […]
(§5) The electroporated cells were suspended in 10 mLs of culture medium and incubated overnight. Dead cells and debris were removed after 24 hours using a MACS Dead Cell Removal kit (Miltenyi Biotec, Auburn, Calif.). Cells were resuspended in 10 mL of culture medium and incubated for an additional 24 hours.
(§6) Transfected cells were selected by adding G418 (Promega Corp., Madison, Wis.) to a final concentration of 1 mg/mL and incubating the cells for seven days.
(§7) The selected transfected cells were counted and resuspended to a concentration of 1×10^6 cell per mL in culture medium. 100 μl aliquots of cells were placed in the wells of a white-walled, white-bottomed 96-well plate (Corning, Inc., Corning, N.Y.). 1.0 μL of an IRM compound from Table 1 (prepared at 1 mM in 100% DMSO) was added to some cell aliquots so that the final concentration of IRM compound was 10 μM. As a positive control, some cell aliquots were incubated with Sendai virus instead of IRM compound. As a negative control, some cell aliquots were incubated with DMSO without IRM compound. In all cases, the cells were incubated for 18 hours.
(§8) The plates were equilibrated to room temperature before one volume of reconstituted LucLight Plus (Packard Instruments, Meriden, Conn.) was added to each aliquot of cells. Each well of the plate was read on an LJL Analyst (LJL Biosystems, Inc., Sunnyvale, Calif.) set with a 5 minute dark adapt. Results are shown in Table 6 and are expressed as fold increase of the IFN-αl—induced luciferase signal compared to a DMSO control.

TLR6 = molecular target: T2, TLR6 (Homo sapiens, UniProt Q9Y2C9); experiment: IFN-α1-luciferase reporter assay in genetically modified Namalwa cells, TLR6; assay type: cell-based; conditions: 10 μM IRM, 18 hours
T2 construct: expressed in transfected cells; host or cells: Namalwa (ATCC CRL-1432), pCI-TLR6 vector, G418 selected
T2 sequence (Q9Y2C9 32-796): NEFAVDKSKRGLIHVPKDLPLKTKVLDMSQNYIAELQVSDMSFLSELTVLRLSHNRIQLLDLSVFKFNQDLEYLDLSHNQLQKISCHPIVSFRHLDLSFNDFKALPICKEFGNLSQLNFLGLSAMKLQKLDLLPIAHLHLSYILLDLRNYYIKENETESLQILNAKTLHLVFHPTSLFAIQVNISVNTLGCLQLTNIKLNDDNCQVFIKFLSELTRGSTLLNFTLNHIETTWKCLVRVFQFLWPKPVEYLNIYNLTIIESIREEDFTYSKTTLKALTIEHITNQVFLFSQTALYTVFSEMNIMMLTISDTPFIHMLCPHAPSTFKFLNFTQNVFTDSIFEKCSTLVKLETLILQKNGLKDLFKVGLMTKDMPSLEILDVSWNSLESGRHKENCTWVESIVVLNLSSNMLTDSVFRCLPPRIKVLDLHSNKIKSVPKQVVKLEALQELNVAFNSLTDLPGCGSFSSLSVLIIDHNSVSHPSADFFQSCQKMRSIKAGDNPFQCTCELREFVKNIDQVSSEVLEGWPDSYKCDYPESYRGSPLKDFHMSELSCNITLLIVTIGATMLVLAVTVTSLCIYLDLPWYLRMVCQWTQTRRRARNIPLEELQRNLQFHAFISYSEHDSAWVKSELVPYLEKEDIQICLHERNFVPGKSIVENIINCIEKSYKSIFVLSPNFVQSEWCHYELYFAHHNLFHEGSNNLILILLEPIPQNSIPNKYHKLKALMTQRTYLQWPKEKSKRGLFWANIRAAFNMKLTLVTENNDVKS
Experimental: as §1, §2, §3, §4
Namalwa cells were grown by incubation in culture medium overnight. Cells were harvested by centrifugation in a tabletop centrifuge (1200 RPM for 5 minutes), and then resuspended in phosphate buffered sucrose to a concentration of 1.3×10^7 cells/mL.
For each transfection, a 750 μL aliquot of the cell suspension was placed in an electroporation cuvette with 4 mm gaps. 10 μg of the pIFN-α1-luc vector and 10 μg of the pCI-TLR6 vector were added to the electroporation cuvette. The cell and vector mixtures were incubated at room temperature for 5 minutes. The cells were electroporated using a BioRad Gene Pulser (BioRad Laboratories, Hercules, Calif.) set to at 500 μF capacitance and […], then incubated at room temperature for 5 minutes.
as §5, §6, §7, §8

| Structure (SMILES) | TLR7: fold increase of the IFN-α1-induced luciferase signal compared to a DMSO control (TLR7) [fold increase] | TLR6: fold increase of the IFN-α1-induced luciferase signal compared to a DMSO control (TLR6) [fold increase] |
| --- | --- | --- |
| CCCCc1nc2c(N)nc3cccnc3c2n1CCNC(=O)c1ccc(Br)o1 [IRM23, N^2-[2-(4-amino-2-butyl-1H-imidazo[4,5-c][1,5]naphthyridin-1-yl)ethyl]-5-bromo-2-furamide] | 2.02 | 0.90 |
| CCOCc1nc2c(N)nc(C)c(C)c2n1CCNS(C)(=O)=O [IRM26, N-{2-[4-amino-2-(ethoxymethyl)-6,7-dimethyl-1H-imidazo[4,5-c]pyridin-1-yl]ethyl}methanesulfonamide] | 2.48 | 1.50 |
| CCCCc1nc2c(N)nc3ccccc3c2s1 [IRM27, 2-butylthiazolo[4,5-c]quinolin-4-amine] | 1.32 | 6.28 |
| Nc1nc2ccccc2c2c1ncn2COCCOc1ccc([N+](=O)[O-])cc1 [IRM29, 1-{[2-(4-nitrophenoxy)ethoxy]methyl}-1H-imidazo[4,5-c]quinolin-4-amine] | 1.32 | 4.57 |
| CCCCc1nc2c(N)nc3ccccc3c2n1CCCCNS(=O)(=O)c1ccc2ccccc2c1 [IRM30, N^2-[4-(4-amino-2-butyl-1H-imidazo[4,5-c]quinolin-1-yl)butyl]-2-naphthalenesulfonamide] | 1.28 | 4.38 |
| Cc1nc(N)c2nc(C)n(CCCCCS(=O)(=O)c3ccccc3)c2c1C [IRM33, 1-(5-benzenesulfonyl-pentyl)-2,6,7-trimethyl-1H-imidazo[4,5-c]pyridin-4-ylamine] | 1.99 | 13.12 |
| Cc1nc2c(N)nc3ccccc3c2n1CC(C)(C)O [IRM34, 4-amino-α,α,2-trimethyl-1H-imidazo[4,5-c]quinoline-1-ethanol] | 3.37 | 10.80 |
| CCCCc1nc2c(N)nc3cccnc3c2n1CCNC(=O)c1ccc(Br)s1 [IRM42, N^2-[2-(4-amino-2-butyl-1H-imidazo[4,5-c][1,5]naphthyridin-1-yl)ethyl]-5-bromo-2-thiophenecarboxamide] | 3.54 | 0.98 |

Continued, values first:

| TLR7: fold increase of the IFN-α1-induced luciferase signal compared to a DMSO control (TLR7) [fold increase] | TLR6: fold increase of the IFN-α1-induced luciferase signal compared to a DMSO control (TLR6) [fold increase] | Structure (SMILES) |
| --- | --- | --- |
| 3.38 | 0.00 | Nc1nc2ccccc2c2c1ncn2CCCCNC(=O)c1cccc2ccccc12 [IRM24, N^1-[4-(4-amino-1H-imidazo[4,5-c]quinolin-1-yl)butyl]-1-naphthamide] |
| 2.89 | 0.04 | CN(C)c1cccc(CCCOCCn2cnc3c(N)nc4ccccc4c32)c1 [IRM25, 1-(2-{3-[3-(dimethylamino)phenyl]propoxy}ethyl)-1H-imidazo[4,5-c]quinolin-4-amine] |
| 0.96 | 2.27 | Nc1nc2ccccc2c2c1ncn2CCCCNC(=O)c1cnc2ccccc2c1 [IRM28, N^3-[4-(4-amino-1H-imidazo[4,5-c]quinolin-1-yl)butyl]-3-quinolinecarboxamide] |
| 1.63 | 3.40 | Nc1nc2ccccc2c2c1ncn2CCOCc1cc2ccccc2o1 [IRM31, 1-[2-(benzo[b]furan-2-ylmethoxy)ethyl]-1H-imidazo[4,5-c]quinolin-4-amine] |
| 1.77 | 7.47 | CCCCc1nc2c(N)nc3ccccc3c2n1CCCNC(=O)Nc1ccccc1 [IRM32, N-[3-(4-amino-2-butyl-1H-imidazo[4,5-c]quinolin-1-yl)propyl]-N′-phenylurea] |
| 2.33 | 6.72 | Nc1nc2ccccc2c2c1ncn2CCOCCCc1cccnc1 [IRM35, 1-{2-[3-(3-pyridyl)propoxy]ethyl}-1H-imidazo[4,5-c]quinolin-4-amine] |
| 2.17 | 1.07 | Nc1nc2ccccc2c2c1ncn2CCCCCCCCNC(=O)c1ccccc1 [IRM43, N-[8-(4-amino-1H-imidazo[4,5-c]quinolin-1-yl)octyl]benzamide] |
